Data from ChEMBL document CHEMBL1201862, “PubChem BioAssay data set” (2004).
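Interpolation was linear, between the two tested concentrations surrounding the appropriate level; five concentrations were tested over 48 hours in 96-well plates. GI50 = concentration required for 50% inhibition of growth.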 Activity calls are given as the source filed them. No stated cut-off is given here; in the data, active = GI50 up to about 1.1 µM and inactive = higher.

What was measured:
Assay in all cases: inhibition of tumour cell growth, NCI panel, 48 h
A549 = test system: A549
CAKI-1 = test system: CAKI-1
DU-145 = test system: DU-145
EKVX = test system: EKVX
HOP-92 = test system: HOP-92
HT-29 = test system: HT-29
MOLT-4 = test system: MOLT-4
Malme-3M = test system: Malme-3M
NCI-H226 = test system: NCI-H226
NCI-H460 = test system: NCI-H460
NCI-H522 = test system: NCI-H522
NCI/ADR-RES = test system: NCI/ADR-RES
OVCAR-3 = test system: OVCAR-3
OVCAR-8 = test system: OVCAR-8
SF-268 = test system: SF-268
SK-MEL-28 = test system: SK-MEL-28
SN12C = test system: SN12C
SW-620 = test system: SW-620
TK-10 = test system: TK-10
SNB-19 = test system: SNB-19

Measured: GI50

Cc1ccc(/C=C/C(=O)c2cc(CN(C)C)c(O)c(CN(C)C)c2)cc1
inactive: A549 18.8 µM | CAKI-1 20.7 µM | DU-145 30.2 µM | EKVX 25.7 µM | HOP-92 31.9 µM | HT-29 13.7 µM | MOLT-4 16 µM | Malme-3M 18.3 µM | NCI-H226 22.5 µM | NCI-H460 12 µM | NCI-H522 14.8 µM | NCI/ADR-RES 25.4 µM | OVCAR-3 14.6 µM | OVCAR-8 21.3 µM | SF-268 25.9 µM | SK-MEL-28 17.6 µM | SN12C 14.2 µM | SW-620 16.1 µM | TK-10 28.8 µM

COc1ccc2nc3cc([N+](=O)[O-])ccc3c(Nc3ccc(S(=O)(=O)Nc4ncccn4)cc3)c2c1
inactive: A549 > 100 µM | CAKI-1 > 100 µM | DU-145 > 100 µM | EKVX > 100 µM | HOP-92 > 44.7 µM | HT-29 26.5 µM | MOLT-4 > 20.2 µM | Malme-3M 48.3 µM | NCI-H226 69.3 µM | NCI-H460 61.5 µM | NCI-H522 > 71.1 µM | NCI/ADR-RES > 100 µM | OVCAR-3 > 50.4 µM | OVCAR-8 45.2 µM | SF-268 40 µM | SK-MEL-28 > 85.5 µM | SN12C > 100 µM | SW-620 > 76.7 µM | TK-10 66.8 µM

COC1(OC)C2(Cl)C(Cl)=C(Cl)C1(Cl)C1COCC12 (stereo not given)
inactive: A549 > 100 µM | CAKI-1 > 100 µM | DU-145 13.4 µM | HOP-92 > 81.3 µM | HT-29 > 100 µM | MOLT-4 > 100 µM | Malme-3M > 100 µM | NCI-H226 > 100 µM | NCI-H460 > 100 µM | NCI-H522 > 100 µM | NCI/ADR-RES > 100 µM | OVCAR-3 > 100 µM | OVCAR-8 > 100 µM | SF-268 > 100 µM | SK-MEL-28 > 38.7 µM | SN12C > 100 µM | SNB-19 > 100 µM | SW-620 > 100 µM | TK-10 > 40.7 µM

CCOC(=O)c1cc(-c2ccc(OC)c(OC)c2)cn1C
inactive: A549 > 10 µM | CAKI-1 > 10 µM | DU-145 > 10 µM | EKVX > 10 µM | HOP-92 > 10 µM | HT-29 > 10 µM | MOLT-4 > 10 µM | Malme-3M > 10 µM | NCI-H226 > 10 µM | NCI-H460 > 10 µM | NCI-H522 > 10 µM | NCI/ADR-RES > 10 µM | OVCAR-3 > 10 µM | OVCAR-8 > 10 µM | SF-268 > 10 µM | SK-MEL-28 > 10 µM | SN12C > 10 µM | SNB-19 > 10 µM | TK-10 > 10 µM

N=C(N)SCCN1CCCCC1
inactive: A549 56 µM | CAKI-1 26.7 µM | DU-145 24.7 µM | EKVX 60.3 µM | HOP-92 27.9 µM | HT-29 29.9 µM | MOLT-4 20.6 µM | Malme-3M 12.5 µM | NCI-H226 21.4 µM | NCI-H460 32.7 µM | NCI-H522 7.5 µM | NCI/ADR-RES 29.2 µM | OVCAR-3 22.2 µM | OVCAR-8 28.6 µM | SF-268 24.4 µM | SK-MEL-28 28.5 µM | SN12C 26.3 µM | SW-620 29.8 µM | TK-10 43.7 µM
